The results in this text go back to patent US20240425478A1, “CYCLOPENTYLPYRAZOLE CDK2 INHIBITORS” (Genentech, Inc., priority 2021, published 2024).

Where two headings read alike, the source gives them in different places.

Assay [1] concerns SKOV-3 (ATCC HTB-77). Kind of assay: SKOV-3 EdU incorporation cell proliferation assay (CDK4/6-dependent). The format is cell-based. To be noted: Homo sapiens, cellular assay, read-out: CDK4/6 SKOV-3 IC50. As for the experimental part: (§1) (i) OVISE and SKOV-3 EdU Incorporation Cell Proliferation Assays
(§2) Ovarian cancer cell proliferation is measured by incorporation of EdU (5-ethynyl-2′-deoxyuridine) into newly synthesized DNA. CDK2-dependent proliferation is determined using OVISE (JCRB1043, CCNE1-amplified) while CDK4/6-dependent effect is determined with SKOV-3 (ATCC HTB-77) which is not CCNE1-amplified.
(§3) Cells are plated in 384-well plates in RPMI medium supplemented with 10% FBS. Compounds are added at desired concentrations with a final DMSO content of 0.5%, and cells incubated at 37° C./5% CO2 for 16 hours. EdU (Life Technologies) is added to a final concentration of 0.5 μM and incubation continued for 8 hours, followed by fixation with 4% paraformaldehyde. […] Images are acquired using Yokogawa CQ1 imaging cytometer with a 10×objective. […] The IC50 for inhibition of cell division is determined by fitting the fraction of EdU-positive cells as a function of compound dose using a 4-parameter logistic model.

For assay [2], the system named is OVISE (JCRB1043, CCNE1-amplified). Kind of assay: OVISE EdU incorporation cell proliferation assay (CDK2-dependent). To be noted: for IC50: cellular assay, read-out: CDK2 OVISE IC50; for FS SKOV-3/OVISE: fold selectivity; for increased fold-selectivity SKOV-3/OVISE over Comparator C: (+) sign after FS SKOV-3/OVISE; for improvement in CDK2 OVISE cell potency over Comparator C: in brackets after OVISE IC50, Comparator C 5.5 μM. The class given is cell-based. As for the experimental part: as §1, §2, §3

For assay [3], the target named is T1, Cyclin Dependent Kinase 1/Cyclin A2 (CDK1-cycA2) (Homo sapiens, UniProt P06493).
T1 construct: purchased ProQinase 0134-0054-1
T1 sequence (P06493 whole entry): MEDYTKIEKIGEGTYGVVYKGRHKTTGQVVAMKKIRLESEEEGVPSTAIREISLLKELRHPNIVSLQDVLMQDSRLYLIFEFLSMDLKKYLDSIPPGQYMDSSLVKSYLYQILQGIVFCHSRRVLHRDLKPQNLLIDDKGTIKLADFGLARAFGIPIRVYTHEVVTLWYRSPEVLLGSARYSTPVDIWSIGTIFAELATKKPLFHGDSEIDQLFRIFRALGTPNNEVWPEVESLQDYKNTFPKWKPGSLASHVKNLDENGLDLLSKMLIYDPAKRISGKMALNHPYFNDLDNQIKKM
T1 sequence (P20248 whole entry partner): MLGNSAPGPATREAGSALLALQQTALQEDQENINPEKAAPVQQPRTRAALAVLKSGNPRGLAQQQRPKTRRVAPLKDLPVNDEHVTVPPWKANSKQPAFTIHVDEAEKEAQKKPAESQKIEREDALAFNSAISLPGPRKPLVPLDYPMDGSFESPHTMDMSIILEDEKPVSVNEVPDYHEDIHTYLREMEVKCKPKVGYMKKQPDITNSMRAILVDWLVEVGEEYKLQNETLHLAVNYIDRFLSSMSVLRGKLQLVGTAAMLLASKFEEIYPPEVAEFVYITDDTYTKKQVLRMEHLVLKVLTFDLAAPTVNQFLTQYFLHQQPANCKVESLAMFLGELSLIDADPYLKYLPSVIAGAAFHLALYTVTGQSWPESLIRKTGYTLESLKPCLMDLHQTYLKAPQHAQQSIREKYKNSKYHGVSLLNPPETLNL
Kind of assay: CDK1-cycA2 TR-FRET (Lance) enzyme assay. The format is biochemical. To be noted: Table O, enzymatic assay. The protocol:
(§4) Cyclin Dependent Kinase 1/Cyclin A2 (CDK1-cycA2), Cyclin Dependent Kinase 2/Cyclin E1 (CDK2-cycE1), Cyclin Dependent Kinase 4/Cyclin D3 (CDK4-cycD3) and Cyclin Dependent Kinase 6/Cyclin D3 (CDK6-cycD3) enzyme assays were carried out as described below.
(1) CDK1-cycA2 TR-FRET (Lance®)
(§5) An Echo acoustic dispenser is used to create dose responses of compound dissolved in DMSO into a 384-well microplate. A 5 μL volume of enzyme mix is added to the well, and pre-incubated with compound for 30 minutes. […] Buffer conditions are 50 mM HEPES, pH 7.5, 10 mM MgCl2, 2 mM TCEP, 0.05% BGG and 0.01% Brij 35. The reaction is quenched with 5 μL of EDTA in detection buffer (15 mM [EDTA final]). Finally, a 5 μL TR-FRET detection mix is added to the quenched reaction, which includes Europium labeled anti-phospho-4E-BP1. […] Signal is a ratio of the Acceptor and Donor fluorescence. Inhibition constants are calculated via the Morrison equation.
For orientation: In TR-FRET formats the signal depends on donor and acceptor labels being close together.

In assay [4] the target is T2, Cyclin Dependent Kinase 2/Cyclin E1 (CDK2-cycE1) (Homo sapiens, UniProt P24941).
T2 construct: purchased ProQinase 0050-0055-1
Kind of assay: CDK2-cycE1 TR-FRET (LANCE) enzyme assay.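 As to improvement in potency against CDK2 (Ki) over Comparator C: fold lower CDK2 Ki than comparator c (Ki 0.032 µM).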 The format is biochemical. To be noted: for FS CDK1/CDK2 / FS CDK4/CDK2: fold selectivity; for increased fold-selectivity CDK1/CDK2 over Comparator C: (+) sign after FS CDK1/CDK2; for increased fold-selectivity CDK4/CDK2 over Comparator C: (+) sign after FS CDK4/CDK2. As for the experimental part: as §4
(ii) CDK2-cycE1 TR-FRET (LANCE®)
as §5, with “anti-phospho-MBP.” for “anti-phospho-4E-BP1.”, “equation. Enzyme source of CDK2-cycE1 is ProQinase, catalog #: 0050-0055-1.” for “equation.”

For assay [5], the target named is T3, Cyclin Dependent Kinase 4/Cyclin D3 (CDK4-cycD3) (Homo sapiens, UniProt P11802).
T3 construct: purchased Carna Biosciences 04-105
T3 sequence (P11802 whole entry): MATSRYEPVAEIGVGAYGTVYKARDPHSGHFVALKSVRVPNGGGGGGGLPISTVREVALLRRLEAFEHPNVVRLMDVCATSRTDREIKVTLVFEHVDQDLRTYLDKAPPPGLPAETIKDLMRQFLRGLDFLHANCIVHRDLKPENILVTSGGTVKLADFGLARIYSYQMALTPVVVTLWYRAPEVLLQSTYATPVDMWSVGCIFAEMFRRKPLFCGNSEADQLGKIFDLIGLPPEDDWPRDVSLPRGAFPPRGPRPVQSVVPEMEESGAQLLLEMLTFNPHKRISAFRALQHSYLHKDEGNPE
T3 sequence (P30281 whole entry partner): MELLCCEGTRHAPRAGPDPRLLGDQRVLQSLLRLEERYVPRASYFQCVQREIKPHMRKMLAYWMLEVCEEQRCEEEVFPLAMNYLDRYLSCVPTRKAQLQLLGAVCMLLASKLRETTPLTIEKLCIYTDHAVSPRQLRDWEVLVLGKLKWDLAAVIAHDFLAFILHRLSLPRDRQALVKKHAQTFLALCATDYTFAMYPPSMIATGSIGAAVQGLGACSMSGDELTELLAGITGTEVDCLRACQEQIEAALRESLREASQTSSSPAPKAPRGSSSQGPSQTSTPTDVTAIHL
Kind of assay: CDK4-cycD3 TR-FRET (LANCE) enzyme assay. The class given is biochemical. To be noted: Table O, enzymatic assay. As for the experimental part: as §4
(iii) CDK4-cycD3 TR-FRET (LANCE®)
as §5

[6] abbreviates: Table O, cellular SKOV-3 IC50 over OVISE IC50.
[7] abbreviates: Table O, enzymatic assay, read-out: CDK2 Ki.
Where [8] appears, read: Table O, enzymatic CDK1 Ki over CDK2 Ki.
The mark [9] stands for this setting: Table O, enzymatic CDK4 Ki over CDK2 Ki.
[10] abbreviates: Table Q, enzymatic assay, read-out: CDK2 Ki.

`CC(C)NC(=O)O[C@@H]1CC[C@H](c2cc(Nc3cc(=O)[nH]cn3)n[nH]2)C1` [Example 2CC, (1R,3S)-3-(3-((6-oxo-1,6-dihydropyrimidin-4-yl)amino)-1H-pyrazol-5-yl)cyclopentyl isopropylcarbamate]: the IC50 was more than 20000 nM in assay [1] (SK-OV-3, Table O); more than 20000 nM in assay [1] (SK-OV-3, Table Q); 2000 nM in assay [2] (Table O). For the same compound, the “FS SKOV-3/OVISE” value in assay [2] (setting [6]) is reported as more than 10; in assay [2] (Table Q, cellular), more than 10. Moreover, the “increased fold-selectivity SKOV-3/OVISE over Comparator C” value (from here on “increased fold-selectivity SKOV-3/OVISE”) in assay [2] (Table Q) is on record as “(+) (The (+) sign in Table Q signifies desirable increased fold-selectivity of the exemplary compounds over Comparator C)”. The “improvement in CDK2 OVISE cell potency over Comparator C” value in assay [2] (Table Q) is 2.8 fold. Besides, the Ki in assay [3] is 34 nM; in assay [4] (setting [7]), 0.33 nM; in assay [4] (setting [10]), 0.33 nM; in assay [4] (read-out: CDK2 activity / potency (enzymatic assay)), not above 1 nM; in assay [5] it was 130 nM. Further, the “improvement in potency against CDK2 (Ki) over Comparator C” value (“improvement … (Ki) over Comparator C” below) in assay [4] is 97 fold. For the same compound, the “FS CDK1/CDK2” value is recorded as 100 in assay [4] (setting [8]) and 100 in assay [4] (Table Q, enzymatic). Also, the “FS CDK4/CDK2” value in assay [4] (setting [9]) was determined as 390; in assay [4] (Table Q, enzymatic) it was 390. In addition, the “increased fold-selectivity CDK1/CDK2 over Comparator C” value in assay [4] (Table Q) is “(+) (The (+) sign in Table Q signifies desirable increased fold-selectivity of the exemplary compounds over Comparator C)”. Moreover, the “increased fold-selectivity CDK4/CDK2 over Comparator C” value (“increased fold-selectivity CDK4/CDK2” below) in assay [4] (Table Q) is recorded as “(+) (The (+) sign in Table Q signifies desirable increased fold-selectivity of the exemplary compounds over Comparator C)”.

For `CC(C)NC(=O)O[C@@H]1CC[C@H](c2cc(Nc3ccc(-n4cccn4)nc3)n[nH]2)C1` [Example 2D, (1R,3S)-3-(3-((6-(1H-pyrazol-1-yl)pyridin-3-yl)amino)-1H-pyrazol-5-yl)cyclopentyl isopropylcarbamate], the IC50 in assay [1] (SK-OV-3, Table O) is 14000 nM; in assay [1] (SK-OV-3, Table Q), 14000 nM; in assay [2] (Table O) it was 700 nM. In addition, the “FS SKOV-3/OVISE” value in assay [2] (setting [6]) is 20; in assay [2] (Table Q, cellular), 20. The “increased fold-selectivity SKOV-3/OVISE” value in assay [2] (Table Q) is on record as “(+) (The (+) sign in Table Q signifies desirable increased fold-selectivity of the exemplary compounds over Comparator C)”. Further, the “improvement in CDK2 OVISE cell potency over Comparator C” value in assay [2] (Table Q) was 7.9 fold. Further, the Ki in assay [3] is 350 nM; in assay [4] (setting [7]), 14 nM; in assay [4] (setting [10]) it was 14 nM; in assay [5], 480 nM. Besides, the “improvement … (Ki) over Comparator C” value in assay [4] is 2.3 fold. For the same compound, the “FS CDK1/CDK2” value amounted to 25 in assay [4] (setting [8]) and 25 in assay [4] (Table Q, enzymatic). Further, the “FS CDK4/CDK2” value is on record as 34 in assay [4] (setting [9]) and 34 in assay [4] (Table Q, enzymatic). The “increased fold-selectivity CDK4/CDK2” value in assay [4] (Table Q) is given as “(+) (The (+) sign in Table Q signifies desirable increased fold-selectivity of the exemplary compounds over Comparator C)”.

As to `CC(C)NC(=O)O[C@@H]1CC[C@H](c2cc(Nc3ccc(-n4cccn4)cn3)n[nH]2)C1` [Example 2DD, (1R,3S)-3-(3-((5-(1H-pyrazol-1-yl)pyridin-2-yl)amino)-1H-pyrazol-5-yl)cyclopentyl isopropylcarbamate], the IC50 in assay [1] (SK-OV-3, Table O) was more than 20000 nM; in assay [1] (SK-OV-3, Table Q), 14000 nM; in assay [2] (Table O), 610 nM. The “FS SKOV-3/OVISE” value in assay [2] (setting [6]) stood at 23; in assay [2] (Table Q, cellular), 23. In addition, in assay [2] (Table Q), the “increased fold-selectivity SKOV-3/OVISE” value is on record as “(+) (The (+) sign in Table Q signifies desirable increased fold-selectivity of the exemplary compounds over Comparator C)”. Further, the “improvement in CDK2 OVISE cell potency over Comparator C” value in assay [2] (Table Q) came out at 9 fold. The Ki in assay [3] is 680 nM; in assay [4] (setting [7]) it was 13 nM; in assay [4] (setting [10]), 13 nM; in assay [5], 350 nM. In addition, the “improvement … (Ki) over Comparator C” value in assay [4] is 2.5 fold. The “FS CDK1/CDK2” value is on record as 52 in assay [4] (setting [8]) and 52 in assay [4] (Table Q, enzymatic). Moreover, the “FS CDK4/CDK2” value in assay [4] (setting [9]) is recorded as 27; in assay [4] (Table Q, enzymatic), 27. Moreover, the “increased fold-selectivity CDK1/CDK2 over Comparator C” value in assay [4] (Table Q) is “(+) (The (+) sign in Table Q signifies desirable increased fold-selectivity of the exemplary compounds over Comparator C)”. The “increased fold-selectivity CDK4/CDK2” value in assay [4] (Table Q) was “(+) (The (+) sign in Table Q signifies desirable increased fold-selectivity of the exemplary compounds over Comparator C)”.
